# In ChEMBL document CHEMBL1129258, “Synthesis and structure-activity relationships of 2-pyridones: a novel series of potent DNA gyrase inhibitors as antibacterial agents” (J Med Chem, 1996):
# Tests used:
# [1] = target: T1, DNA gyrase (Escherichia coli) (UniProt P0AES6+P0AES4); assay: In vivo efficacy against Escherichia coli JUHL after oral administration; type: functional, organism-based; details: Escherichia coli K-12
# [2] = target: T1, DNA gyrase (Escherichia coli); assay: In vivo efficacy against Escherichia coli JUHL by subcutaneous administration; type: functional, organism-based; details: Escherichia coli K-12
# [3] = target: T1, DNA gyrase (Escherichia coli); assay: In vitro antibacterial activity against gram-negative organism […] ATCC 13048; type: functional; details: Enterobacter aerogenes
# [4] = target: T1, DNA gyrase (Escherichia coli); assay: In vitro antibacterial against gram-negative organism Escherichia coli JUHL; type: functional; details: Escherichia coli K-12
# [5] = target: T1, DNA gyrase (Escherichia coli); assay: In vitro antibacterial activity against gram-negative organism Klebsiella pneumoniae ATCC 8045; type: functional
# [6] = In vivo efficacy against Pseudomonas aeruginosa 5007 after subcutaneous administration; type: functional
# [7] = target: T1, DNA gyrase (Escherichia coli); assay: In vitro antibacterial activity against gram-negative organism Prov. stuartii CMX-640; type: functional; details: Providencia stuartii
# [8] = In vitro antibacterial activity against gram-negative organism Pseudomonas aeruginosa 5007; type: functional
# [9] = In vitro antibacterial activity against gram-negative organism Pseudomonas aeruginosa DPHD-2862; type: functional
# [10] = target: T2, DNA gyrase (Staphylococcus aureus) (UniProt P0A0K8+P20831); assay: In vitro antibacterial activity against gram-positive organism Staphylococcus aureus 1775; type: functional
# [11] = target: T2, DNA gyrase (Staphylococcus aureus); assay: In vitro antibacterial activity against gram-positive organism Staphylococcus aureus ATCC 6538p; type: functional
# [12] = target: T2, DNA gyrase (Staphylococcus aureus); assay: In vitro antibacterial activity against gram-positive organism Staphylococcus aureus NCTC-10649M; type: functional
# [13] = target: T1, DNA gyrase (Escherichia coli); assay: In vitro antibacterial activity against gram-positive organism Streptococcus bovis A-5169; type: functional; details: Streptococcus equinus
# Streptococcus pneumoniae [14] = assay: (§1) In vivo efficacy against Strep. administration; type: functional
# [15] = target: T2, DNA gyrase (Staphylococcus aureus); assay: (§2) In vivo efficacy against Staphylococcus aureus NCTC-10649M after oral administration; type: functional, organism-based
# [16] = target: T2, DNA gyrase (Staphylococcus aureus); assay: In vivo efficacy against Staphylococcus aureus NCTC-10649M after subcutaneous administration; type: functional, organism-based
# Streptococcus pyogenes = assay: In vitro antibacterial activity against gram-positive organism Streptococcus pyogenes EES61; type: functional; details: Streptococcus pyogenes; read-out: MIC
# [17] = target: T1, DNA gyrase (Escherichia coli); assay: In vitro antibacterial activity against gram-positive organism Enterococcus faecium ATCC 8043; type: functional
# Streptococcus pneumoniae [18] = assay: as §1; type: functional; remark: listed apart in the source
# [19] = target: T1, DNA gyrase (Escherichia coli); details: Escherichia coli K-12
# Description: Concentration which causes 50% of the gyrase (Escherichia coli H560)-mediated maximal DNA cleavage.
# Pseudomonas aeruginosa [20] = assay: In vivo efficacy against Pseudomonas aeruginosa 5007 following p.o. administration.
# Pseudomonas aeruginosa [21] = assay: In vivo efficacy against Pseudomonas aeruginosa 5007 by orally administered.; type: functional
# Streptococcus pneumoniae [22] = assay: In vivo efficacy against Strep. administered; type: functional
# Streptococcus pneumoniae [23] = assay: as §1; type: functional; remark: listed apart in the source
# Streptococcus equinus = assay: In vitro antibacterial activity against gram-positive organism Strep. bovis A-5169; type: functional
# Enterococcus faecium = assay: In vitro antibacterial activity against gram-positive organism Enterococcus faecium ATCC 8043
# [24] = Maximum plasma concentration in rats after an oral dose of 5 mg/kg; details: rat
# in vivo [25] = details: rat, plasma, po, 5 mg/kg
# in vivo [26] = details: rat, po, 5 mg/kg
# Description: Oral bioavailability in rat (dose 5 mg/kg)
# physchem = details: phosphate buffer, pH 7.4
# Description: Aqueous solubility in pH 7.4 phosphate buffer (0.05 M) at 37 degree C
# Staphylococcus aureus = assay: as §2; type: functional
# [27] = Pseudomonas aeruginosa, sc, read-out: ED50
# [28] = Pseudomonas aeruginosa, read-out: MIC
# [29] = Streptococcus pneumoniae, read-out: ED50
# T2 sequence (P0A0K8 2-644 limits assumed): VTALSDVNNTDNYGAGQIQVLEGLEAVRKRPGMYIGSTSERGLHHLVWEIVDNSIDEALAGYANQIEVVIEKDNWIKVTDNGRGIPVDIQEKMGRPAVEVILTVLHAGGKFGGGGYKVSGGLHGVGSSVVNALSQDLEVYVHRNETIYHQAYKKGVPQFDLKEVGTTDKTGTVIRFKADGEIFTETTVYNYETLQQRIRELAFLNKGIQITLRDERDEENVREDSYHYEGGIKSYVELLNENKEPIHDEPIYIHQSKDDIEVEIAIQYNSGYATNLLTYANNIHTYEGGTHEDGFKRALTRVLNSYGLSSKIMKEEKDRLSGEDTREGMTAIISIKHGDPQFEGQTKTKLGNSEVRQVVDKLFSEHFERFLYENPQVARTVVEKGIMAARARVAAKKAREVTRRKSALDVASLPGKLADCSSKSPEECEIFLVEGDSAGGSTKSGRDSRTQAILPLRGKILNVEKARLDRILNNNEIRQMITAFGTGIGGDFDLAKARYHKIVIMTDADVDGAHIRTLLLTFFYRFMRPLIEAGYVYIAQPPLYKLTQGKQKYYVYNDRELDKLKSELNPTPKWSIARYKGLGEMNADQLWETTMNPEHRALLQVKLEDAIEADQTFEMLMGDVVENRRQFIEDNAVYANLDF
# T2 sequence (P20831 whole entry partner): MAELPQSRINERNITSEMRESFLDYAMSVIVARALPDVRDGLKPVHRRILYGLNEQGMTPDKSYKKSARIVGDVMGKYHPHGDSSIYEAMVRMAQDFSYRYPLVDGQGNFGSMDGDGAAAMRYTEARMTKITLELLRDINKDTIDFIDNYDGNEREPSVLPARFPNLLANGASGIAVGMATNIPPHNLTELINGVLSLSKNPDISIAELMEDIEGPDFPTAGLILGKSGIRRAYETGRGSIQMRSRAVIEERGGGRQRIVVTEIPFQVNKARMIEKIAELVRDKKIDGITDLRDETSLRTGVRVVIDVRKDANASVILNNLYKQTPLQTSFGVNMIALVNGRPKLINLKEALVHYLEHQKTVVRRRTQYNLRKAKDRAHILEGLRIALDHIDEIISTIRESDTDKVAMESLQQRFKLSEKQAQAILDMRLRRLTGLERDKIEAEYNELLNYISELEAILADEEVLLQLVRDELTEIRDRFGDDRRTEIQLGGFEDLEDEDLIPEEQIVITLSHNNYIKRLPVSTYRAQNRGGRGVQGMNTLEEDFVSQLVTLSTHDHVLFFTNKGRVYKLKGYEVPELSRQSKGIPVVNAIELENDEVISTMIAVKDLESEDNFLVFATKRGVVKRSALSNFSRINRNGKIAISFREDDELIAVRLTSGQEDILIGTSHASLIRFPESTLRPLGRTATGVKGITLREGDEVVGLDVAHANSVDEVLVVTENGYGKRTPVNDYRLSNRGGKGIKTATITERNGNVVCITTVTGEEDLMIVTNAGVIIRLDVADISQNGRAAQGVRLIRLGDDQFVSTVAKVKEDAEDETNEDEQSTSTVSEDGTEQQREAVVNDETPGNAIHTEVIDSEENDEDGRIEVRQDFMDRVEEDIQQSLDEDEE
SMILES,ED50 [1] [mg/kg],ED50 [2] [mg/kg],MIC [3] [µg/mL],MIC [4] [µg/mL],MIC [5] [µg/mL],"ED50 [6, 27] [mg/kg]",MIC [7],"MIC [8, 28] [µg/mL]","MIC [9, 28] [µg/mL]",MIC [10] [µg/mL],MIC [11] [µg/mL],MIC [12] [µg/mL],MIC [13] [µg/mL],ED50 [15] [mg/kg],ED50 [16] [mg/kg],MIC (Streptococcus pyogenes) [µg/mL],MIC [17] [µg/mL],ED50 (Streptococcus pneumoniae [18]) [mg/kg],CC50 [19] [µg/mL],ED50 (Pseudomonas aeruginosa [20]) [mg/kg],further results
NC1CCN(c2c(F)cn3c(=O)c(C(=O)O)cc(C4CC4)c3c2Cl)C1 (centres undefined),5.6,1,0.1,0.05,0.05,3.3,3.1 µg/mL,0.39,6.2,6.2,0.2,0.2,0.78,5.7,1.6,0.39,0.39,11.1,0.31,17,ED50 (Streptococcus pneumoniae [14]): 8.5 mg/kg
"Cc1c(N2C[C@@H]3CCN[C@@H]3C2)c(F)cn2c(=O)c(C(=O)O)cc(C3CC3)c12 (stereo in doubt; (S,S)45o)",–,–,–,–,–,–,–,–,–,–,–,–,–,–,–,–,–,11.2,–,–,ED50 [6]: 18 mg/kg; ED50 (Pseudomonas aeruginosa [21]): >50 mg/kg; MIC [8]: 0.2 µg/mL; MIC [9]: 3.1 µg/mL; ED50 (Streptococcus pneumoniae [22]): 2.3 mg/kg
Cc1c(N2CC[C@@H](O)C2)c(F)cn2c(=O)c(C(=O)O)cc(C3CC3)c12,–,–,0.2,0.1,0.02,–,0.78 µg/mL,0.78,25,1.56,0.02,0.02,–,11.2,6.1,–,0.2,–,–,–,ED50 (Streptococcus pneumoniae [23]): > 2 mg/kg; MIC (Streptococcus equinus): 0.2 µg/mL
NC1CCN(c2nc3c(-c4ccc(F)cc4F)cc(C(=O)O)c(=O)n3cc2F)C1 (centres undefined),5.6,1,0.05,0.02,0.02,10.3,1.56 µg/mL,0.39,100,> 100,0.1,0.1,1.56,12,4.4,0.39,–,–,0.5,42.1,MIC (Enterococcus faecium): 0.78 µg/mL
Cc1c(N2CC[C@@H]3CNC[C@@H]32)c(F)cn2c(=O)c(C(=O)O)cc(C3CC3)c12,3.6,1.1,0.05,0.001,0.02,> 8,1.56 µg/mL,0.39,3.1,6.2,0.05,0.05,0.1,3.6,1.8,0.1,0.1,–,0.4,42.8,Cmax [24]: 330 ng/mL; ED50 (Streptococcus pneumoniae [22]; [29]): 6.4 mg/kg; ED50 (Streptococcus pneumoniae [18]; [29]): 9.5 mg/kg; half-life (in vivo [25]): 342 min; bioavailability (in vivo [26]): 41%; solubility (physchem): 1940 µg/mL
Cc1c(N2CC[C@@H]([C@@H](C)N)C2)c(F)cn2c(=O)c(C(=O)O)cc(C3CC3)c12,5.7,0.5,0.01,0.001,0.001,5.4,0.78 pug ml-1,0.2,6.2,0.39,0.002,0.002,0.01,–,< 0.2,0.005,0.01,–,0.4,24.4,ED50 (Staphylococcus aureus): 1.1 mg/kg
